Data: ChEMBL document CHEMBL3638677, “Bicyclic compounds and their uses as dual c-SRC/JAK inhibitors” (2015)

Experiments:
[1] = target: Tyrosine-protein kinase JAK2 (Homo sapiens, UniProt O60674); experiment: (§1) TR-FRET Assay: Compounds were screened in the TR-FRET assay for JAK2 and c-Src kinase inhibition. Ultra light poly GT (Perkin Elmer) was used as the substrate for JAK2 and c-Src with the ATP concentration of 10 μM and 50 μM, respectively.
[2] = target: Proto-oncogene tyrosine-protein kinase Src (Homo sapiens, UniProt P12931); experiment: as §1, with “respectively. The Eu-labelled anti-phospho tyrosine antibody (Perkin Elmer) was added at 1 nM and the fluorescence emission at 615 nm and 665 nm was measured with an excitation wavelength of 340 nm.” for “respectively.”
Sequence of Proto-oncogene tyrosine-protein kinase Src (P12931 2-536 limits assumed): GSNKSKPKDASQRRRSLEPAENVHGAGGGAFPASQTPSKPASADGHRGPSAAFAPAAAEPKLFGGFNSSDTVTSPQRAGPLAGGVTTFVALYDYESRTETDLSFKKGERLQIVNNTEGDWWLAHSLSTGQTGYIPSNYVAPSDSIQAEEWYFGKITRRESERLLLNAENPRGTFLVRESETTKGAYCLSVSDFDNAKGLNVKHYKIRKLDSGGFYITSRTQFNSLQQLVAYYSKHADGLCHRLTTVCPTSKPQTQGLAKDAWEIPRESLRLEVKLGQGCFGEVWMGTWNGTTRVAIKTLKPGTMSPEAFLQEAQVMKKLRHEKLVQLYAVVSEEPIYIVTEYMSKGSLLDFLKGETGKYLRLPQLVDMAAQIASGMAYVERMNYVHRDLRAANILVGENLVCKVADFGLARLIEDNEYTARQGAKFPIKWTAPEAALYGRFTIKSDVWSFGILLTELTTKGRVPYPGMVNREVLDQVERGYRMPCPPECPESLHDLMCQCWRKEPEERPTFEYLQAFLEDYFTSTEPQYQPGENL

Sequence of Tyrosine-protein kinase JAK2 (O60674 whole entry): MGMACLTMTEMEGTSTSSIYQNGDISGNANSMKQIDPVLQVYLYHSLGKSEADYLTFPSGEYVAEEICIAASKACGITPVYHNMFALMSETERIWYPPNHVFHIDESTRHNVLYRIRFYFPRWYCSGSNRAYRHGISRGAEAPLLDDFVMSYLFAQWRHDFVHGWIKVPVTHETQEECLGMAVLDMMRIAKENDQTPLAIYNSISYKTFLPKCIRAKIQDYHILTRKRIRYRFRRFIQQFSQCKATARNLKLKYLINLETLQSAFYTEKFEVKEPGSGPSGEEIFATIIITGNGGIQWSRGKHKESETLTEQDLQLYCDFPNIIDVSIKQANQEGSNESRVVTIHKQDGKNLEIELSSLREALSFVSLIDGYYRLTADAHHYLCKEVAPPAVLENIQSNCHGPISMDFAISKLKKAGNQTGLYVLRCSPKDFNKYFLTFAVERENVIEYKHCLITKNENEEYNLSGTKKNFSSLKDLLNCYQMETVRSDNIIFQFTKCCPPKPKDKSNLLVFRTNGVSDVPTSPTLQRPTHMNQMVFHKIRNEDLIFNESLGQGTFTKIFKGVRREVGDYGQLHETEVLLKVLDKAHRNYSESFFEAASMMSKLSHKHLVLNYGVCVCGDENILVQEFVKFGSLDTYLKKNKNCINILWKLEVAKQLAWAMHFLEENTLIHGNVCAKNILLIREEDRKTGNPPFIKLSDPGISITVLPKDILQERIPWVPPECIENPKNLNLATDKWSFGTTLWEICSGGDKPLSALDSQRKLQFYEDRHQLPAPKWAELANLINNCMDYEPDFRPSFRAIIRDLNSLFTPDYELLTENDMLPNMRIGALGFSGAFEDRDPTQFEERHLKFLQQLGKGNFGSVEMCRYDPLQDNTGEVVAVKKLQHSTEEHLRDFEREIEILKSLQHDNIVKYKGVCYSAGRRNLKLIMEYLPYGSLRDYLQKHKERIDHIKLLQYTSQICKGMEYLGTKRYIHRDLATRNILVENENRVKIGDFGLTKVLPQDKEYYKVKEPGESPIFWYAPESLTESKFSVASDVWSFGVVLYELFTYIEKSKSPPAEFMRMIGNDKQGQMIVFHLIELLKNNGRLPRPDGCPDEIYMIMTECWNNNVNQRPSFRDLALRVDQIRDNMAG

| SMILES | IC50 [1] | IC50 [2] |
| --- | --- | --- |
| Cc1ccc(NC(=O)c2cccc(C(C)(C)C)c2)cc1N1CCc2nc(Nc3ccc(N4CCN(C)CC4)cc3)ncc2C1=O | 45 nM | 28 nM |
| Cc1ccc(NC(=O)c2cccc(C(F)(F)F)c2)cc1N1CCc2nc(Nc3ccc(C(=O)NC4CCN(C)CC4)cc3)ncc2C1 | 7 nM | 2 nM |
| CN1CCN(c2ccc(Nc3ncc4c(n3)CCN(c3cc(NC(=O)c5cc(F)cc(C(F)(F)F)c5)ccc3Cl)C4=O)cc2)CC1 | 9 nM |  |
| CN1CCN(c2ccc(Nc3ncc4c(n3)CCN(c3cc(NC(=O)c5cccc(C(F)(F)F)c5)ccc3Cl)C4)cc2)CC1 | 8.8 nM |  |
